Reference: paper PMC5864073, “A D-enantiomer of the antimicrobial peptide GL13K evades antimicrobial resistance in the Gram positive bacteria Enterococcus faecalis and Streptococcus gordonii” (PLoS ONE, 2018)
Where a SMILES comes first, the peptide text is derived from it. [ ]: non-standard residue; d: D form.

Assays:
[1] = tested on: S. gordonii dltA mutant; test: Selection for peptide resistance, serial MIC assays; format: cell-based, Streptococcus gordonii; conditions: repeated treatment with sub-inhibitory concentrations, 2–3 experiments
Experimental: (§1) To investigate potential resistance development against the GL13K peptides, dilutions of the peptides were prepared and incubated as described for the MIC assay. The next day (day 0), the MIC was recorded and the culture in the well with the highest peptide concentration that allowed growth (i.e 0.5 x MIC) was diluted 1:100 and used as an inoculum for the next round of selection in a new MIC assay and so forth until a stable plateau of resistance was reached.
(§2) Fig 6 Development of resistance in S. gordonii. MICs for L-GL13K (circles) and D-GL13K (squares) were recorded on consecutive days using S. gordonii DL1 (wild-type) (open symbols) (D-enantiomer only) and dltA (closed symbols). The MIC for each day is expressed relative to the starting MIC (day 0). Data from 2–3 experiments are shown as mean ± range.

[2] = tested on: S. gordonii DL1 (wild-type); test: as above; format: cell-based, Streptococcus gordonii; conditions: repeated treatment with sub-inhibitory concentrations, 2–3 experiments
Experimental: as §1, §2

[3] = tested on: wild-type E. faecalis (OG1RF); test: as above; format: cell-based, Enterococcus faecalis; conditions: serial passage at 0.5 x MIC
Experimental: as §1
(§3) Fig 4 Development of resistance in E. faecalis. MICs for L-GL13K (circles) and D-GL13K (squares) were recorded on consecutive days using E. faecalis OG1RF (wild-type) (open symbols) (D-enantiomer only) and dltA (closed symbols). The MIC for each day is expressed relative to the starting MIC (day 0). Data from three experiments are shown as mean ± SEM.

[4] = tested on: E. faecalis dltA mutant (TX5427); test: as above; format: cell-based, Enterococcus faecalis; conditions: serial passage at 0.5 x MIC, L-GL13K after two rounds, D-GL13K after seven rounds, three experiments
Experimental: as §1, §3

[5] = tested on: E. faecalis OG1RF; test: Triton X-100 induced bacterial autolysis assay; format: cell-based, Enterococcus faecalis; conditions: PBS with 0.05% Triton X-100, peptide 100 mg/L, OD600 for 180 min
Experimental: (§4) The lysis assay followed an established protocol for bacterial autolysis with minor modifications. Exponentially growing cells were washed twice in PBS then washed once in ice-cold dH2O. The bacteria were incubated in PBS with 0.05% Triton X-100 and peptides at a concentration of 100 mg/L. OD600 was monitored spectrophotometrically for 180 min. In some experiments, the cells were incubated with the peptides for 2h in PBS+0.05% Triton X-100 and then cultured on THA to enumerate surviving cells.
(§5) Fig 2 Effect of GL13K peptides on Triton X-100 induced autolysis. E. faecalis OG1RF (A) or the autolysis-deficient strain TX5128 (B) were incubated in PBS with 0.05% Triton X-100 in the absence of peptide (control) or in the presence of 100 mg/L of L-GL13K or D-GL13K (D). The OD600 was recorded for 180 min and expressed as a percent of starting OD600 of the control sample. (C): Bactericidal activity of GL13K peptides in PBS+0.05% Triton X-100. E. faecalis OG1RF were incubated with 0.05% Triton X-100 in the absence of peptide (Ctrl) or with L-GL13K or D-GL13K for 2h. Surviving CFU were enumerated and are shown as mean ± SEM (N = 5). Peptide treated samples were compared to the untreated control by Kruskal-Wallis test with Dunn’s multiple comparison post-test. n.s., not significant.

[6] = tested on: E. faecalis OG1RF biofilm; test: Biofilm assay (Calgary device); format: cell-based, Enterococcus faecalis; conditions: 24 h biofilm of OG1RF, peptide 100 mg/L, 4 h, CFU enumerated
Experimental: (§6) E. faecalis OG1RF, TX5427 or V583 were cultured in a Calgary device for 24h in THB. Biofilms were treated with peptides (100 mg/L) for 4h and surviving cells were sonicated and plated on THA for enumeration of CFUs.
(§7) Fig 3 Effect of GL13K peptides on biofilms of E. faecalis. Twenty-four hour biofilms of OG1RF; OG1RF dltA or V583 were treated with 100 mg/L of L-GL13K (L) or D-GL13K (D). Surviving CFU were enumerated from each peg and expressed relative to the mean CFU recovered from pegs of wild-type cells treated with buffer alone (OG1RF—C). Data from 2–4 experiments are expressed as mean ± SEM (N = 6–13). V583 was only treated with D-GL13K.

[7] = tested on: vancomycin-resistant E. faecalis V583 biofilm; test: Biofilm assay (Calgary device); format: cell-based, Enterococcus faecalis; conditions: 24 h biofilm of V583, peptide 100 mg/L, 4 h, CFU enumerated
Experimental: as §6, §7

[8] = tested on: E. faecalis OG1RF dltA (TX5427) biofilm; test: Biofilm assay (Calgary device); format: cell-based, Enterococcus faecalis; conditions: 24 h biofilm of OG1RF dltA, peptide 100 mg/L, 4 h, CFU relative to the wild-type biofilm
Experimental: as §6, §7

[9] = tested on: wild-type E. faecalis; test: Bactericidal activity in sodium phosphate buffer; format: cell-based, Enterococcus faecalis; conditions: 10^8 CFU/ml wild-type E. faecalis, no energy source, 10 mM sodium-phosphate pH 7.4, 2 h, 37°C, spotted on THA; D N = 4, L N = 3
Experimental: These assays were performed according to our established protocol with some modifications. Cells were washed three times in 0.9% NaCl and five μl of washed cells (10^9 CFU/ml) were added to the peptides diluted 2-fold (128 to 4 mg/L) in 45 μl of 10 mM sodium-phosphate, pH 7.4. The samples were incubated at 37°C for 2 h and 10 μl were then spotted on THA plates to assess bactericidal activity.

[10] = tested on: E. faecalis OG1RF; test: Bactericidal activity in PBS+0.05% Triton X-100; format: cell-based, Enterococcus faecalis; conditions: PBS+0.05% Triton X-100, peptide 100 mg/L, 2 h, CFU on THA, N = 5
Experimental: as §4, §5

[11] = tested on: conditioned supernatant of protease-deficient E. faecalis (TX5128); test: Proteolysis of peptide by conditioned culture supernatant (P. aeruginosa Xen41 bioassay); format: in vitro ADME, Enterococcus faecalis; conditions: conditioned sterile-filtered supernatant of protease-deficient E. faecalis TX5128, peptide 32 mg/L, 2 h, 37°C; bioluminescence read-out after 15 min; three independent experiments
Experimental: To test proteolytic processing of GL13K peptides, overnight bacterial cultures were centrifuged (5 min, 13,000 g) and the conditioned supernatants were sterile-filtered (0.22 μm, Corning). Filtered supernatant (16.8 μl) was incubated with 3.2 μl (3.2 μg) peptide at 37°C for 2 h to allow bacterial proteases in the supernatant to process the peptide. To determine residual peptide activity, 70 μl of 10 mM sodium phosphate buffer, pH 7.4 was added to each sample and then supplemented with 10 μl (10^8 CFU) of bioluminescent Pseudomonas aeruginosa Xen41 (Caliper Lifesciences; now Perkin Elmer, MA) that had been washed three times in 0.9% NaCl (final maximal peptide concentration 32 mg/L). Viability of the indicator bacteria was determined after 15 min incubation at 37°C by determining bioluminescence in a Synergy HT plate reader. The luminescence detected in the absence of added peptide was used as a measure of 100% proteolysis.
Fig 1 Relative proteolysis of GL13K peptides. (A): Wild-type (OG1RF) or the protease-negative strain (TX5128) of E. faecalis was cultured on THA containing 3% gelatin. Gelatinase activity was visualized as a turbid halo around the bacterial colonies; (B): L-GL13K (L) or D-GL13K (D) (32 mg/L) was incubated with conditioned supernatant of wild-type (OG1RF) or the protease-negative strain (TX5128) of E. faecalis for 2 h. Residual peptide activity was determined by adding bioluminescent P. aeruginosa Xen41 to the mixture. Bioluminescence from surviving bacteria was used as a measure of proteolytic degradation of each peptide and expressed relative to bacterial bioluminescence in the absence of peptides (equivalent to 100% proteolysis). Data are shown as mean ± SEM from three independent experiments and were analyzed by paired t-test for each strain. n.s., not significant.

CC[C@@H](C)[C@@H](NC(=O)[C@@H](CCCCN)NC(=O)CN)C(=O)N[C@@H](C(=O)N[C@H](CCCCN)C(=O)N[C@H](CC(C)C)C(=O)N[C@H](CCCCN)C(=O)N[C@H](C)C(=O)N[C@H](CO)C(=O)N[C@H](CC(C)C)C(=O)N[C@H](CCCCN)C(=O)N[C@H](CC(C)C)C(=O)N[C@H](CC(C)C)C(N)=O)[C@H](C)CC [D-GL13K] (H-G[dK][dI][dI][dK][dL][dK][dA][dS][dL][dK][dL][dL]-NH2; N-terminus and C-terminus assumed)
Increase of MIC relative to starting MIC (day 0) [1]: little change of the MIC | Increase of MIC relative to starting MIC (day 0) [2]: little change of the MIC | Increase of MIC relative to starting MIC (day 0) [3]: did not substantially increase the MIC | Increase of MIC relative to starting MIC (day 0) [4]: 2 fold | Effect on Triton X-100 induced autolysis (OD600) [5]: no autolysis was seen | Reduction of viable biofilm CFU [6]: 3 log10 | Reduction of viable biofilm CFU [7]: 3 log10 | Reduction of viable biofilm CFU [8]: highly effective | Peptide concentration required for complete killing [9]: 15 ± 10 mg/L | Reduction of viable cells under autolysis conditions [10]: 3 log10 | Proteolysis of peptide (loss of activity against bioluminescent P. aeruginosa Xen41) [11]: did not show significant proteolysis
